Literature values, collected in patent US20240044899A1, “BIOMARKERS FOR FIMEPINOSTAT THERAPY” (Curis, Inc, priority 2021, published 2024).

Test system: MYC-altered DLBCL/HGBL patients
Conditions: Prospective phase 2; MYC IHC >40%; sample size 47; cited from earlier work

Question: With `O=C(/C=C\n1cnc(-c2cc(C(F)(F)F)cc(C(F)(F)F)c2)n1)NNc1cnccn1` [Selinexor, reference compound] as the molecule, how does the ORR read?
Answer: Its ORR is 13%.
